Legend:
[1] = biological target: NAD(P)H dehydrogenase [quinone] 1 (Homo sapiens) (UniProt P15559); assay: Catalytic constant determined to activate by DT diaphorase in human cell lines
Escherichia coli B = assay: Catalytic constant determined to activate by FMN-dependent nitroreductase enzyme from Escherichia coli B (NTR)

Chain of NAD(P)H dehydrogenase [quinone] 1 (Homo sapiens) (P15559 whole entry): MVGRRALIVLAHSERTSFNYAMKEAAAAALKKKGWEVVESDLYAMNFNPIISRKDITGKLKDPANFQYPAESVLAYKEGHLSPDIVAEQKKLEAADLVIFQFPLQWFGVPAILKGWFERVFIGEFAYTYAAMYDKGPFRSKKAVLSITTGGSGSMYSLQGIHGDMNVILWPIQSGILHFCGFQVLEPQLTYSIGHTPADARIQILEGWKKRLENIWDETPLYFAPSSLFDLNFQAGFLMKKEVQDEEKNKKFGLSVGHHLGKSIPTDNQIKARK

| SMILES | k cat [1] [s⁻¹] | k cat (Escherichia coli B) [s⁻¹] |
| --- | --- | --- |
| NC(=O)c1cc(N2CC2)c([N+](=O)[O-])cc1[N+](=O)[O-] | 0.0107 | 6 |
| NC(=O)c1cc(N(CCCl)CCCl)c([N+](=O)[O-])cc1[N+](=O)[O-] | – | 26.3 |

Source: ChEMBL document CHEMBL1133673, “Crystal structure of FMN-dependent nitroreductase from Escherichia coli B: a prodrug-activating enzyme” (J Med Chem, 2000)
